Experimental data from PubChem BioAssay AID1918934 (Molecular Pharmacology Branch, DTP, NCI, 2023).

Test system: 292921-168-R-J2-PDC complex spheroid viability
Experiment: Anticancer human tumor 292921-168-R-J2-PDC patient-derived pancreatic carcinoma cell line growth inhibition
Conditions: for IC50: curve of first compound; for viability, T/C: stronger effect = lower value
Text: Multicellular complex tumor spheroid response to LSD1 Inhibitor Iadademstat in combination with a variety of drugs and investigational agents in selected tumor cell lines
The current study was undertaken to assess response to LSD1 inhibitors in combination with standard-of-care drugs and investigational agents in solid tumor complex spheroid models as well as in the K-562 leukemia. Complex spheroids include a stromal component modeled by human endothelial cells (HUVEC) and fibroblasts modeled by human mesenchymal stem cells (MSCs). The concentration ranges selected for each drug and investigational agent were based upon clinically achievable concentrations if the clinical Cmax of the agent was known.
Compounds. The drugs and investigational agents used in this study are listed on Table 1. All of the agents used, including staurosporine (NSC755774) and gemcitabine (NSC613327), were obtained from the Developmental Therapeutics Program, NCI. FDA-approved anticancer drugs are available from the NCI at http://dtp.nci.nih.gov/branches/dscb/oncology_drugset_explanation.html. Drugs and investigational agents were >95% pure by proton nuclear magnetic resonance (NMR) and liquid chromatography/mass spectrometry (LC/MS). Stock solutions were prepared at 400x in DMSO, stored at -70 degrees C, and diluted in fresh medium prior to their use. The final concentration of DMSO in cell culture wells never exceeded 0.25% (v/v). The FDA-approved anticancer drug set is available from the Developmental Therapeutics Program at https://dtp.cancer.gov/organization/dscb/obtaining/available_plates.htm. All drugs and investigational agents were tested over a range starting from a high concentration at or near the clinical Cmax and decreasing in half-log increments. If the clinical Cmax for an agent had not been determined, the highest concentration tested was 10 microM.
Cell Lines. The patient-derived cancer cell (PDC) lines: 292921-168-R-J2-PDC, K24384-001-R-PDC, and 521955-158-R2-J5-PDC pancreatic carcinomas, 556581-035-R-J1 ovarian carcinoma, 324938-238-R-J1-PDC, 855422-203-R-J1-PDC and 883617-216-R-J1-PDC urothelial bladder carcinomas, 743489-274-T-PDC renal cell carcinoma, 138582-R-J1 Merkel cell tumor, K60290-347-R-J1 and K57222-313-R-J1-PDC glioblastomas, 653999-131-R-J2-PDC, LG0703-F948-PDC, and 349418-098-R-PDC non-small cell lung carcinomas, 885512-296-R-J2-PDC, 171881-019-R-J1-PDC breast carcinomas and 186277-243-T-J2-PDC and 233499-124-R-J2-PDC colon carcinomas were obtained from the NCI Patient-Derived Models Repository (PDMR, https://pdmr.cancer.gov). The established cell lines NCI/ADR-RES (RRID:CVCL_14520 and OVCAR-5 (RRID:CVCL_1628) ovarian carcinomas, 786-O (RRID:CVCL_1051) and A498 (RRID:CVCL_A498) renal cell carcinoma, NCI-H211 (ATCC, cat. CRL-5824; RRID:CVCL_1529), NCI-H196 (ATCC, cat. CRL-5823, RRID:CVCL_1509), SW 1271 (ATCC, cat. CRL-2177, RRID:CVCL_1716) and NCI-H1876 (ATCC, cat. CRL-5902, RRID:CVCL_1503) small cell lung carcinomas, MDA-MB-231 (RRID:CVCL_0062) and MDA-MB-468 (RRID:CVCL_0419)breast carcinomas (10-12). Pooled donor human umbilical vein endothelial cells (HUVEC, Lonza, cat. CC-2519) and human mesenchymal stem cells (hMSC, Lonza, cat. PT-2501) were purchased from Lonza (Walkersville, MD).
Cell Culture. All cells were maintained in an incubator at 37 degrees C and 5% CO2 with 95% humidity. The PDC lines were cultured according to standard operating procedures established by the NCI PDMR (https://pdmr.cancer.gov). Briefly all PDCs were thawed and cultured in Matrigel-coated flasks prepared with a working solution of 1X Ham's F-12 nutrient mix, without supplementation (Invitrogen, Waltham, MA, cat. 11765054), 100 U/mL penicillin-streptomycin (Invitrogen, cat. 15140122), and 2.5% Matrigel (Corning Inc., Corning, NY, cat. 354248) for the first three passages. […]
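Note: seven day compound exposure before luminescent viability read.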
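Throughout, for viability, T/C: 100% = DMSO vehicle control wells.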

O=C(C=Cn1cnc(-c2cc(C(F)(F)F)cc(C(F)(F)F)c2)n1)NNc1cnccn1 + NC1CC1c1ccc(-c2cccc(O)c2)cc1
IC50 (second compound 0.1 µM): 3.26 nM | IC50 (second compound 0.316 µM): 3.41 nM | IC50 (second compound 1 µM): < 3.16 nM | IC50 (second compound 3.16 µM): 4.57 nM | IC50 (second compound 10 µM): 3.76 nM | viability, T/C (second compound 0.1 µM, first compound 0.00316 µM): 48.3% | viability, T/C (second compound 0.1 µM, first compound 0.01 µM): 49.7% | viability, T/C (second compound 0.1 µM, first compound 0.0316 µM): 26.2% | viability, T/C (second compound 0.1 µM, first compound 0.1 µM): 12.7% | viability, T/C (second compound 0.1 µM, first compound 0.316 µM): 7.08% | viability, T/C (second compound 0.1 µM, first compound 1 µM): 6.49% | viability, T/C (second compound 0.316 µM, first compound 0.00316 µM): 50% | viability, T/C (second compound 0.316 µM, first compound 0.01 µM): 45% | viability, T/C (second compound 0.316 µM, first compound 0.0316 µM): 22.3% | viability, T/C (second compound 0.316 µM, first compound 0.1 µM): 11.1% | viability, T/C (second compound 0.316 µM, first compound 0.316 µM): 7.37% | viability, T/C (second compound 0.316 µM, first compound 1 µM): 6.26% | viability, T/C (second compound 1 µM, first compound 0.00316 µM): 47.8% | viability, T/C (second compound 1 µM, first compound 0.01 µM): 42.7% | viability, T/C (second compound 1 µM, first compound 0.0316 µM): 23% | viability, T/C (second compound 1 µM, first compound 0.1 µM): 11.8% | viability, T/C (second compound 1 µM, first compound 0.316 µM): 6.36% | viability, T/C (second compound 1 µM, first compound 1 µM): 6.66% | viability, T/C (second compound 3.16 µM, first compound 0.00316 µM): 51.8% | viability, T/C (second compound 3.16 µM, first compound 0.01 µM): 46% | viability, T/C (second compound 3.16 µM, first compound 0.0316 µM): 24% | viability, T/C (second compound 3.16 µM, first compound 0.1 µM): 14.4% | viability, T/C (second compound 3.16 µM, first compound 0.316 µM): 7.81% | viability, T/C (second compound 3.16 µM, first compound 1 µM): 7.38% | viability, T/C (second compound 10 µM, first compound 0.00316 µM): 50.7% | viability, T/C (second compound 10 µM, first compound 0.01 µM): 46.3% | viability, T/C (second compound 10 µM, first compound 0.0316 µM): 33.5% | viability, T/C (second compound 10 µM, first compound 0.1 µM): 17.6% | viability, T/C (second compound 10 µM, first compound 0.316 µM): 9.43% | viability, T/C (second compound 10 µM, first compound 1 µM): 8.53%

O=C(C=Cc1cccc(S(=O)(=O)Nc2ccccc2)c1)NO + NC1CC1c1ccc(-c2cccc(O)c2)cc1
IC50 (second compound 0.1 µM): 29.8 nM | IC50 (second compound 0.316 µM): < 9.49 nM | IC50 (second compound 1 µM): 11.7 nM | IC50 (second compound 3.16 µM): 11.9 nM | IC50 (second compound 10 µM): < 9.49 nM | viability, T/C (second compound 0.1 µM, first compound 0.00949 µM): 59.3% | viability, T/C (second compound 0.1 µM, first compound 0.03 µM): 48.9% | viability, T/C (second compound 0.1 µM, first compound 0.0949 µM): 34.9% | viability, T/C (second compound 0.1 µM, first compound 0.3 µM): 25.2% | viability, T/C (second compound 0.1 µM, first compound 0.949 µM): 1.42% | viability, T/C (second compound 0.1 µM, first compound 3 µM): 0.23% | viability, T/C (second compound 0.316 µM, first compound 0.00949 µM): 52.5% | viability, T/C (second compound 0.316 µM, first compound 0.03 µM): 42.6% | viability, T/C (second compound 0.316 µM, first compound 0.0949 µM): 38.6% | viability, T/C (second compound 0.316 µM, first compound 0.3 µM): 24.9% | viability, T/C (second compound 0.316 µM, first compound 0.949 µM): 1.57% | viability, T/C (second compound 0.316 µM, first compound 3 µM): 0.46% | viability, T/C (second compound 1 µM, first compound 0.00949 µM): 54.4% | viability, T/C (second compound 1 µM, first compound 0.03 µM): 43.4% | viability, T/C (second compound 1 µM, first compound 0.0949 µM): 40.3% | viability, T/C (second compound 1 µM, first compound 0.3 µM): 22.8% | viability, T/C (second compound 1 µM, first compound 0.949 µM): 0.74% | viability, T/C (second compound 1 µM, first compound 3 µM): 0.53% | viability, T/C (second compound 3.16 µM, first compound 0.00949 µM): 52.1% | viability, T/C (second compound 3.16 µM, first compound 0.03 µM): 45.7% | viability, T/C (second compound 3.16 µM, first compound 0.0949 µM): 35.7% | viability, T/C (second compound 3.16 µM, first compound 0.3 µM): 22.8% | viability, T/C (second compound 3.16 µM, first compound 0.949 µM): 0.66% | viability, T/C (second compound 3.16 µM, first compound 3 µM): 0.11% | viability, T/C (second compound 10 µM, first compound 0.00949 µM): 45.2% | viability, T/C (second compound 10 µM, first compound 0.03 µM): 36.9% | viability, T/C (second compound 10 µM, first compound 0.0949 µM): 31.8% | viability, T/C (second compound 10 µM, first compound 0.3 µM): 18.7% | viability, T/C (second compound 10 µM, first compound 0.949 µM): 0.41% | viability, T/C (second compound 10 µM, first compound 3 µM): 0.15%
